Assays:
[1] = tested on: dorsal root ganglion neurons; experiment: Effect of SNJ1945 on axon elongation in mouse dorsal root ganglion neurons; assay type: cell-based; conditions: 200 μM, 24 or 48 hours, vs 1% DMSO
Protocol: Dorsal root ganglions were aseptically extracted from postnatal mice (3, 10, or 15 days old) under a stereoscopic microscope, and tissue fragments were dispersed by gentle pipetting and then treated with 0.025% trypsin/0.0013% DNaseI (both being final concentrations) at 37° C. for 20 minutes. After centrifugation, a BME culture solution (Gibco) containing 10% equine blood serum was added, and washing was performed. After the enzyme reaction was stopped, a BME culture solution containing 0.0052% DNaseI/10% equine blood serum (both being final concentrations) was added, and pipetting was performed. […] After incubation for another 15 minutes at room temperature, the resulting aggregates were washed well and carefully embedded using glycerol for fluorescence microscope observation (Merck) so as not to break up the aggregates. […] Dorsal root ganglion neurons were also isolated from LIS1 hetero mice (3 days old) and analyzed in the same manner.
Dorsal root ganglion neurons were isolated from 3-day-old mice or 15-day-old mice, and the correlation between the presence or absence of SNJ1945 addition and axon length was analyzed. […]

[2] = tested on: LIS1 protein; experiment: Expression amount of LIS1 protein in dorsal root ganglion neurons by western blotting; assay type: cell-based, mouse; conditions: 200 μM
Protocol: Dorsal root ganglion neurons were isolated from mice (3 days old or 15 days old) and the expression amount of LIS1 protein was analyzed in the order of time sequence from initiation of culture. Protein extraction was performed by adding 100 μl of a protein-dissolving liquid (30 mM Tris-HCl, pH 6.8, 1.5% sodium dodecyl sulfate (SDS), 0.3% bromophenol blue (BPB), 0.3% 2-mercapto-ethanol (2-ME), and 15% glycerol) per 5×10^4 dorsal root ganglion neurons and further performing ultrasonic treatment to achieve complete solubilization. After the heat treatment at 95° C. for 5 minutes, 1 μl of the obtained protein lysate was separated by 12.5% SDS-acrylamide electrophoresis and subjected to western blotting using anti-LIS1 antibody to detect LIS protein (the left-side figure in FIG. 2). The intensity of the detected band was analyzed (after correction with the intensity of the GAPDH band), and the expression ratio of LIS protein was determined (right-side figure in FIG. 2). […]
After the incubation, the procedures were performed in the same manner as described above in the “Analysis of Expression Amount of LIS1 Protein in Dorsal Root Ganglion Neurons” section to detect LIS protein by western blotting (the left-side figure in FIG. 5). Further, the intensity of the detected band was analyzed to determine the expression ratio of the LIS protein (the right-side figure in FIG. 5).

[3] = tested on: sciatic nerve injury model mice; experiment: Histological analysis of sciatic nerves in sciatic nerve injury models; assay type: in vivo, mouse
Protocol: (§1) To investigate the effect of SNJ1945 on promoting peripheral nerve regeneration, mouse sciatic nerve injury models were prepared and histologically analyzed. The models were used as sciatic nerve injury model mice produced according to the method of Wall et al. (Wall, 1979). More specifically, model mice were produced in the following manner. Four-week-old female mice were subjected to general anesthesia with sevoflurane inhalation anesthesia (Mylan N.V.) and laid down in a prone position. The skin on the femur was incised. The muscle layer was peeled off carefully and quickly so as not to injure the sciatic nerve. The nerve was severed (completely injured) at mid-thigh at one point with an interval of 40 mm from the periphery. The muscle layer and the skin were then sutured and disinfected. The mice were used as complete nerve injury model mice. Administration of SNJ1945 was performed by mixing SNJ-1945 into a diet (CE-2, CLEA Japan, Inc.) and orally administering the mixture continuously to each mouse in an amount of 200 μg of SNJ1945/per gram of body weight/day. Mice that were subjected to the same complete nerve injury and maintained on a diet not containing SNJ1945 (CE-2, CLEA Japan, Inc.) were used as a control group.
For histological analysis, after the mice were sacrificed by cervical dislocation, sciatic nerves were removed and fixed in 4% paraformaldehyde for 24 hours. After the paraformaldehyde was replaced with PBS, the sciatic nerves were embedded in paraffin. The tissue block was cut into 5-μm-thick sections and each tissue section was adhered onto a glass slide. For hematoxylin and eosin staining, each tissue section was 1) deparaffinized, 2) washed with water, 3) stained with Mayer's or Carrazzi's hematoxylin, 4) lightly washed with running water, 5) allowed to develop color, 6) stained with an eosin solution for 1 minute, and 7) subjected to dehydration, clearing, and embedding; and morphologically observed under an optical microscope.
Samples for observation under an electron microscope were prepared in the following manner. Sciatic nerves were removed in the same manner as above and then placed in a fixative (2.5% glutaraldehyde). Ten minutes after being placed in the fixative, the sciatic nerves were removed and placed in several drops of the fixative that had been dropped on a thick plastic sheet beforehand, and cut into thin sections. Post-fixation was performed using an aqueous osmium tetroxide solution. Next, free water contained in the tissue was replaced with ethyl alcohol. In order to make ultrathin sections, the tissue was embedded in an epoxy resin, and tissue sections were produced with an ultramicrotome. Observation was performed using a transmission electron microscope (Hitachi Ltd.: H-7500).

[4] = tested on: sciatic nerve injury model mice; experiment: Functional analysis of sciatic nerves in sciatic nerve injury models; assay type: in vivo, mouse
Protocol: as §1, with “Mice that were subjected to the same complete nerve injury and maintained on a diet not containing SNJ1945 (CE-2, CLEA Japan, Inc.) were used as a control group.” left out
To further investigate the peripheral nerve regeneration promotion effect of SNJ1945, motor function of sciatic nerve injury model mice was evaluated based on the sciatic function index (SFI) and print length factor (PLI) using Footprint (Bain et al., 1989).

[5] = tested on: LIS1 protein; conditions: disclosed in WO2012/074120; based on calpain inhibitory activity; cited from earlier work
[6] = complete nerve injury model, oral in diet 200 μg/g body weight/day, 1 week after administration, vs control group

For `COCCOCCOC(=O)N[C@@H](CC(C)C)C(=O)N[C@@H](Cc1ccccc1)C(=O)C(=O)NC1CC1` [Compound 17, ((1S)-1-((((1S)-1-Benzyl-2,3-dioxo-3-(cyclopropylamino)propyl)amino)carbonyl)-3-methylbutyl)carbamic acid 5-methoxy-3-oxapentyl ester], which “axon elongation (axon length)” value ([1]; neurons from 3-day-old mice) is on record?
Its value is “axon elongation promotion effect”.

What about the “axon elongation (axon length)” value ([1]; neurons from 15-day-old mice) of the same compound?
Its value is “significant axon elongation promotion effect”.

What about the “expression amount of LIS1 protein” value ([2]; neurons from 3-day-old mice) of the same compound?
The value was “not able to significantly increase the expression amount”.

And the “expression amount of LIS1 protein” value ([2]; neurons from 15-day-old mice)?
The value was “significantly increased the expression amount of LIS1”.

And the “myelin regeneration in sciatic nerves after nerve cell degeneration” value ([3]; administration started 1 week after severance, analyzed 1 month after severance)?
The value was “significantly high myelin regeneration”.

What about the “recovery of myelin (electron microscope)” value [3, 6] of the same compound?
Its value is “recovery of myelin”.

What about the “recovery of sciatic nerves (hematoxylin and eosin staining)” value [3, 6] of the same compound?
Its value is “significant recovery of sciatic nerves”.

What about the “number of myelin whose recovery was recognized (regeneration of myelin in sciatic nerves)” value ([3]; complete nerve injury model, oral in diet, FIG. 24, vs control group) of the same compound?
Its value is “significantly high regeneration of myelin”.

What about the “condition of the paw” value ([4]; complete injury model, one month after administering, vs control group mouse) of the same compound?
The value was “recovered to the extent that the mouse could grasp the cage”.

And the “recovery of complete nerve injury models (motor function)” value ([4]; continuous administration)?
The value was “further promoted recovery”.

And the “effect of amplifying LIS1 protein” value [5]?
Its value is “has an effect of amplifying LIS1 protein”.
